Patent EP2878306B1, “MODIFIED PEPTIDE, CB RECEPTOR LIGAND, KIT, IN VITRO PROCESS FOR […] RECEPTOR BONDS, USES, PHARMACEUTICAL COMPOSITION FOR […] RECEPTOR ACTIVITY” (Proteimax Biotecnologia Ltda, priority 2012, dated 2014)
No end group written: not given here.

Columns and labels:
CB1 receptor = target: T1, CB1 receptor (Homo sapiens, UniProt P21554); assay: ELISA with striate membranes and anti-CB1 antibody, receptor activating percentage regarding the control; type: biochemical; conditions: for activity in CB1 receptors: striate membranes 5µg/pool, 1µM of each drug, 2 hours, ambient temperature, compared to control and SeqID:1
T1 construct: ligand for CB1 receptor through ELISA with striate membranes (5µg/pool) treated with 1µM of each drug; from tissue; host or cells: striatal ('striate') membranes
Procedure: (§1) The receptor activating percentage was calculated regarding the control, non-treated membrane (100%). […] Significant differences are indicated and p<0.05.

Rats = assay: Depression model (forced swim); type: in vivo; conditions: stated as contrary to Rimonabant
Procedure: The forced swim test was performed based on the previous tests ([Harkin et al., 2004], [Petit-Demouliere et al., 2005] and [Treit and Menard, 1998]).

non-obese wistar rats = assay: Treatment acute model, 3 days orally (Figures 4 to 9); type: in vivo
From the text: Furthermore, in a treatment acute model (3 days of treatment orally in non-obese wistar rats) it was verified the brown adipose tissue activation, the retroperitoneal, inguinal and brown adipose tissues reduction, as well the adiposity ratio (Figures 4 to 9), effects not observed with Rimonabant.

Thin wistar rats [1] = assay: Test in Retroperitoneal adipose tissue; type: in vivo; conditions: 100 ug/Kg, 3 days orally; in comparison with Rimonabant and/or saline; scale g/100g
Procedure: The measure of the adipose tissue was performed after finishing the treatment. The results are expressed by the retroperitoneal adipose tissue weight measured for treatment purpose (scale of g/100g). Rats administered with vehicle (saline) were subject to the same protocol (control).

Thin wistar rats [2] = assay: Test in Gonadal adipose tissue; type: in vivo; conditions: 100 ug/Kg, 3 days orally; in comparison with Rimonabant and/or saline; scale g/100g
Procedure: The measure of the adipose tissue was performed after finishing the treatment. The results are expressed by the gonadal adipose tissue weight measured at the treatment end (scale of g/100g). Rats administered with vehicle (saline) were subject to the same protocol (control).

Thin wistar rats [3] = assay: Test in Inguinal adipose tissue; type: in vivo; conditions: 100 ug/Kg, 3 days orally; in comparison with Rimonabant and/or saline; scale g/100g
Procedure: The measure of the adipose tissue was performed after finishing the treatment. The results are expressed by the inguinal adipose tissue weight measured at the treatment end (scale of g/100g). Rats administered with vehicle (saline) were subject to the same protocol (control).

Thin wistar rats [4] = assay: Test in Brown adipose tissue; type: in vivo; conditions: 100 ug/Kg, 3 days orally; in comparison with Rimonabant and/or saline; scale g/100g
Procedure: The measure of the adipose tissue was performed after finishing the treatment. The results are expressed by the brown adipose tissue weight measured at the treatment end (scale of g/100g). Rats administered with vehicle (saline) were subject to the same protocol (control).

Thin wistar rats [5] = assay: Test in Mesenteric adipose tissue; type: in vivo; conditions: 100 ug/Kg, 3 days orally; in comparison with Rimonabant and/or saline; scale g/100g
Procedure: The measure of the adipose tissue was performed after finishing the treatment. The results are expressed by the mesenteric adipose tissue weight measured at the treatment end (scale of g/100g). Rats administered with vehicle (saline) were subject to the same protocol (control).

Thin wistar rats [6] = assay: Adiposity ratio determination; type: in vivo; conditions: 100 ug/Kg, 3 days orally; in comparison with Rimonabant and/or saline
Procedure: Thin wistar rats were treated with a Rimonabant dosage (100 ug/Kg) or peptide 19 (Pep 19 100 ug/Kg) during 3 days orally. The measure of the adiposity ratio was performed after finishing the treatment using the formula (%), (I=Σ fat deposits/body weight x 100). The results are expressed by the animal weight measured at the treatment end (scale of g/100g). Rats administered with vehicle (saline) were subject to the same protocol (control).

Thin wistar rats [7] = assay: Serum leptin concentration determination; type: in vivo; conditions: 100 ug/Kg, 3 days orally; in comparison with saline
Procedure: Thin wistar rats were treated with a Rimonabant dosage (100 ug/Kg) or peptide 19 (Pep 19 100 ug/Kg) during 3 days orally. The measure of the serum leptin concentration was performed after finishing the treatment. The results are expressed ng/mL. Rats administered with vehicle (saline) were subject to the same protocol (control).

[8] = tested on: animals supplemented with 20% saccharose; assay: Determination of the weight in animals supplemented with 20% saccharose; type: in vivo, Rats wistar; conditions: 100 µg/Kg; 3th to 5th week of treatment
Procedure: (§2) Rats wistar fed with standard regimen supplemented with 20% saccharose were used in the drinking water during 60 days before and during the 30 days-treatment with SALINE (negative control), Rimonabant (positive control), Peptide 19 (Pep 19) in the concentration of 50µg/Kg and Peptide 19 (Pep 19) in the concentration of 100 µg/Kg.

[9] = tested on: animals supplemented with 20% saccharose; assay: Glucose in animals supplemented with 20% saccharose; type: in vivo, Winstar rats; conditions: 100 µg/Kg; 15th and 30th days of treatment
Procedure: as §2, with “Winstar rats” for “Rats wistar”

[10] = tested on: animals supplemented with 20% saccharose; assay: Determination of the insulinemia in animals supplemented with 20% saccharose; type: in vivo, Wistar rats; conditions: 100 µg/Kg; after 30 days-treatment
Procedure: as §2, with “Wistar rats” for “Rats wistar”

[11] = tested on: animals supplemented with 20% saccharose; assay: Determination of the cholesterol in animals supplemented with 20% saccharose; type: in vivo, Wistar rats; conditions: after 30 days-treatment
Procedure: as §2, with “Wistar rats” for “Rats wistar”

[12] = tested on: animals supplemented with 20% saccharose; assay: Determination of Triglycerides in animals supplemented with 20% saccharose; type: in vivo, Wistar rats; conditions: 100 µg/Kg; after 30 days-treatment
Procedure: as §2, with “Wistar rats” for “Rats wistar”

[13] = tested on: animals supplemented with 20% saccharose; assay: Determination of the amount of gonadal adipose tissue in animals supplemented with 20% saccharose; type: in vivo, Wistar rats; conditions: 100µg/Kg; after the 30th day of treatment; in comparison to further groups
Procedure: as §2, with “Wistar rats” for “Rats wistar”

[14] = tested on: animals supplemented with 20% saccharose; assay: Determination of the amount of mesenteric adipose tissue in animals supplemented with 20% saccharose; type: in vivo, Wistar rats; conditions: after the 30th day of treatment, in comparison to further groups
Procedure: as §2, with “Wistar rats” for “Rats wistar”

[15] = tested on: animals supplemented with 20% saccharose; assay: Determination of the amount of inguinal adipose tissue in animals supplemented with 20% saccharose; type: in vivo, Wistar rats; conditions: 100µg/Kg; after the 30th day of treatment; in comparison to further groups
Procedure: as §2, with “Wistar rats” for “Rats wistar”

[16] = tested on: animals supplemented with 20% saccharose; assay: Determination of the adiposity ratio in animals supplemented with 20% saccharose (Example 25); type: in vivo, Wistar rats; conditions: 100µg/Kg; 30 days-treatment; in comparison to further groups
Procedure: as §2, with “Wistar rats” for “Rats wistar”

[17] = tested on: animals supplemented with 20% saccharose; assay: Determination of the adiposity ratio in animals supplemented with 20% saccharose (Example 26); type: in vivo, Wistar rats; conditions: 600µg/Kg; 30 days-treatment; in comparison to further groups
Procedure: (§3) Wistar rats fed with standard regimen supplemented with 20% saccharose were used in the drinking water during 60 days before and during the 30 days-treatment with SALINE (negative control), Rimonabant (positive control), Peptide 19 (Pep 19) in the concentration of 100µg/Kg, 300µg/Kg and 600µg/Kg.

[18] = tested on: animals supplemented with 20% saccharose; assay: Determination of the blood pressure in animals supplemented with 20% saccharose; type: in vivo, Wistar rats; conditions: 600µg/Kg; 30 days-treatment; in comparison to further groups
Procedure: as §3

CB2 receptor = assay: ELISA with striate membranes for CB2 receptor, receptor activating percentage regarding the control; type: biochemical
Procedure: as §1

T1 sequence (P21554 whole entry): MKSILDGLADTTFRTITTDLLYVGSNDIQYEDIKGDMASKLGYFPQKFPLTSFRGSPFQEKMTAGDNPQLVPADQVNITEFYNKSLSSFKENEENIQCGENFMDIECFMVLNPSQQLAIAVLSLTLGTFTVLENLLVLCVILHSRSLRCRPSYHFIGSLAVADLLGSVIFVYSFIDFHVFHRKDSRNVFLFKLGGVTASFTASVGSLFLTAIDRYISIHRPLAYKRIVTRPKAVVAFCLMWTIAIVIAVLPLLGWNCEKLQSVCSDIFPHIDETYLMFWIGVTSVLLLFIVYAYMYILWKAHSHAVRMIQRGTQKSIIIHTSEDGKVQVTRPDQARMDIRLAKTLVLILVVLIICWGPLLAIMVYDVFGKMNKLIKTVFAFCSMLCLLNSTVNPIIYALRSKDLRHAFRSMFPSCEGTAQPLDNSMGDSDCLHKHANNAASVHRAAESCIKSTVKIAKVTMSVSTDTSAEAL

## Cyclic peptide -Asp-Ile-Ile-Ala-Asp-Asp-Glu-Pro-Leu-Thr- [Example 6]
CB1 receptor; Table 1 summary, in vitro, receptor not stated
  Result (change in the activity of the cyclic form): Change in the activity was not detected

## DIIADDAPLT [SeqID:3]
CB1 receptor; Table 1 summary
  Result (activity regarding the CB1): Reduces the activity regarding the CB1 (comparatively the SeqID:1).
CB1 receptor
  activity in CB1 receptors: smaller activity in CB1 receptors

## DIIADDE [SeqID:4]
CB1 receptor; Table 1 summary
  Result (activity regarding the CB1): Increases the activity regarding the CB1
CB1 receptor
  activity in CB1 receptors: improved inverse agonist activity in CB1 receptors

## DIIADDEALT [SeqID:5]
CB1 receptor; Table 1 summary, high dosages
  Result (high dosages): became agonist
CB1 receptor; Table 1 summary, low dosages
  Result (low dosages): the inverse agonist activity was not detected
CB1 receptor; high dosages, different dosages of each drug, 2 hours (Figure 14, CB1 receptor)
  activity in the endocannabinoid receptors, high dosages: agonist activity
CB1 receptor; low dosages, different dosages of each drug, 2 hours (Figure 14, CB1 receptor)
  activity in the endocannabinoid receptors, low dosages: activity inverse agonist

## DIIADDEPLT [SeqID:1]
CB1 receptor
  activity in CB1 receptors: inverse agonist of the CB1 receptor
Rats
  depression (forced swim, immobility time): does not cause depression
non-obese wistar rats; 3 days of treatment orally
  adiposity ratio: reduction
  brown adipose tissue: reduction
  brown adipose tissue activation: activation
  inguinal adipose tissue: reduction
  retroperitoneal adipose tissue: reduction
non-obese wistar rats; oral administration
  activity when administered orally: has activity even when administered orally
Thin wistar rats [1]
  retroperitoneal adipose tissue mass: smaller
Thin wistar rats [2]
  gonadal adipose tissue mass: no difference
Thin wistar rats [3]
  inguinal adipose tissue mass: smaller
Thin wistar rats [4]
  brown adipose tissue mass: smaller
Thin wistar rats [5]
  mesenteric adipose tissue mass: no difference
Thin wistar rats [6]
  adiposity ratio: smaller
Thin wistar rats [7]
  serum leptin concentration: smaller
[8]
  weight percentages (% from the animals weight treated with SALINE): lower weight percentages
[9]
  glycaemia: lower glycaemia
[10]
  insulinemia: lower average of insulinemia
[11]; 50µg/Kg
  cholesterol percentages (% from SALINE): lower cholesterol percentages
[11]; 100 µg/Kg
  cholesterol percentages (% from SALINE): lower cholesterol percentages
[12]
  percentages of triglycerides (% from SALINE): lower percentages of triglycerides
[13]
  gonadal adipose tissue, corrected by the body weight: lower percentages of gonadal adipose tissue
[14]; 50 µg/Kg
  mesenteric adipose tissue, corrected by the body weight: lower percentages of mesenteric adipose tissue
[14]; 100µg/Kg
  mesenteric adipose tissue, corrected by the body weight: lower percentages of mesenteric adipose tissue
[15]
  inguinal adipose tissue, corrected by the body weight: biggest amounts of inguinal adipose tissue
[16]
  adiposity ratio (adipose tissue total mass corrected by the body weight): biggest amounts of adipose tissue
[17]
  adiposity ratio (adipose tissue total mass corrected by the body weight): lower amounts of adipose tissue
[18]
  blood pressure: lower blood pressure

## DILADDEPLT [SeqID:2]
CB1 receptor; Table 1 summary
  Result (activity regarding the CB1): Reduces the activity regarding the CB1
CB2 receptor; Table 1 summary
  Result (activity in CB2): raises a strong inverse agonist activity in CB2
CB2 receptor; striate membranes 5µg/pool, 1 µM of each drug, 2 hours, ambient temperature
  activity in CB2 receptors: inverse agonist of the CB2 receptor
